In US7977332B2, “Insecticidal N-(heteroarylalkyl)alkanediamine derivatives” (FMC Corporation, priority 2003, dated 2011):

Tested on: tobacco budworm (Heliothis virescens [Fabricius])
Assay: surface-treated diet test against tobacco budworm
Format: in vivo
Conditions: 0.25 millimolar on the surface of the diet; second instar larvae; five-day exposure
Protocol: Candidate insecticides were evaluated for activity against the tobacco budworm (Heliothis virescens [Fabricius]) in a surface-treated diet test.
In this test one mL of molten (65-70° C.) wheat germ-based artificial diet was pipetted into each well of a four by six (24 well) multi-well plate (ID# 430345-15.5 mm dia.×17.6 mm deep; Corning Costar Corp., One Alewife Center, Cambridge, Mass. 02140). The diet was allowed to cool to ambient temperature before treatment with candidate insecticide.
For a determination of insecticidal activity, solutions of the candidate insecticides were prepared for testing using a Packard 204DT Multiprobe® Robotic System (Packard Instrument Company, 800 Research Parkway, Meriden, Conn. 06450), in which the robot first diluted a standard 50 millimolar DMSO solution of candidate insecticide with a 1:1 water/acetone solution (V/V) in a ratio of 1:7 stock solution to water/acetone. The robot subsequently pipetted 40 microliters of the so-prepared solution onto the surface of the diet in each of three wells in the 24 multi-well plate. The process was repeated with solutions of seven other candidate insecticides. Once treated, the contents of the multi-well plate were allowed to dry, leaving 0.25 millimoles of candidate insecticide on the surface of the diet, or a concentration of 0.25 millimolar. Appropriate untreated controls containing only DMSO on the diet surface were also included in this test.
For evaluations of the insecticidal activity of a candidate insecticide at varying rates of application, the test was established as described above using sub-multiples of the standard 50 millimolar DMSO solution of candidate insecticide. For example, the standard 50 millimolar solution was diluted by the robot with DMSO to give 5, 0.5, 0.05, 0.005, 0.0005 millimolar, or more dilute solutions of the candidate insecticide. In these evaluations there were six replicates of each rate of application placed on the surface of the diet in the 24 multi-well plate, for a total of four rates of application of candidate insecticide in each plate.
In each well of the test plate was placed one second instar tobacco budworm larvea, each weighing approximately five milligrams. After the larvae were placed in each well, the plate was sealed with clear polyfilm adhesive tape. The tape over each well was perforated to ensure an adequate air supply. The plates were then held in a growth chamber at 25° C. and 60% relative humidity for five days (light 14 hours/day).
After the five-day exposure period insecticidal activity for each rate of application of candidate insecticide was assessed as percent inhibition of insect weight relative to the weight of insects from untreated controls, and percent mortality when compared to the total number of insects infested.
The test compounds of formula I are identified by numbers that correspond to those in Table 1.

SMILES	Percent Mortality
CSC(=C[N+](=O)[O-])NCCN(CCC(F)(F)F)Cc1ccc(Cl)nc1 [Compound 3]	50%
CSC(=C[N+](=O)[O-])NCCN(CC#N)Cc1ccc(Cl)nc1 [Compound 10]	17%
C=CCN(CCNC(=C[N+](=O)[O-])OC)Cc1ccc(Cl)nc1 [Compound 242]	83%
C#CCN(CCN/C(=C/[N+](=O)[O-])OC)Cc1ccc(Cl)nc1 [Compound 244]	83%
C#CCN(CCNC(=C[N+](=O)[O-])SC)Cc1ccc(Cl)nc1 [Compound 248, {2-[((1Z)-1-methylthio-2-nitrovinyl)amino]ethyl}[(6-chloro(3-pyridyl)methyl]prop-2-ynylamine]	100%

Same assay, conditions: 0.25 millimolar on the surface of the diet; second instar larvae; five-day exposure; insect weight relative to untreated controls

SMILES	Percent Growth Inhibition
COC(=C[N+](=O)[O-])NCCN(CCCF)Cc1ccc(Cl)nc1 [Compound 1]	100%
CSC(=C[N+](=O)[O-])NCCN(CCCF)Cc1ccc(Cl)nc1 [Compound 2]	100%
CSC(=C[N+](=O)[O-])NCCN(CCC(F)(F)F)Cc1ccc(Cl)nc1 [Compound 3]	96%
COCCN(CCNC(=C[N+](=O)[O-])SC)Cc1ccc(Cl)nc1 [Compound 4]	100%
CCOCCN(CCNC(=C[N+](=O)[O-])SC)Cc1ccc(Cl)nc1 [Compound 5]	100%
COCCOCCN(CCNC(=C[N+](=O)[O-])OC)Cc1ccc(Cl)nc1 [Compound 6]	95%
COCCOCCN(CCNC(=C[N+](=O)[O-])SC)Cc1ccc(Cl)nc1 [Compound 7]	99%
COCCOCCN(CCNC(=C[N+](=O)[O-])OCCOC)Cc1ccc(Cl)nc1 [Compound 8]	100%
CSC(=C[N+](=O)[O-])NCCN(O)Cc1ccc(Cl)nc1 [Compound 9]	91%
CSC(=C[N+](=O)[O-])NCCN(CC#N)Cc1ccc(Cl)nc1 [Compound 10]	90%
CSC(=C[N+](=O)[O-])NCCN(Cc1ccc(Cl)nc1)CC1CCOC1 (centres unmarked) [Compound 14]	100%
CSC(=C[N+](=O)[O-])NCCN(Cc1ccc(Cl)nc1)CC1CCCCO1 (centres unmarked) [Compound 15]	85%
CSC(=C[N+](=O)[O-])NCCN(Cc1ccc(Cl)nc1)Cc1ccsc1 [Compound 17]	99%
CSC(=C[N+](=O)[O-])NCCN(Cc1ccc(Cl)nc1)Cc1ccco1 [Compound 18]	100%
CSC(=C[N+](=O)[O-])NCCN(Cc1ccc(Cl)nc1)Cc1ccoc1 [Compound 19]	100%
CCN(CCNC(=C[N+](=O)[O-])OC)Cc1ccc(Cl)nc1 [Compound 41]	100%
COC(=C[N+](=O)[O-])NCCN(Cc1ccc(Cl)nc1)Cc1ccc(Cl)nc1 [Compound 187]	50%
CC(C)COC(=C[N+](=O)[O-])NCCN(Cc1ccc(Cl)nc1)Cc1ccc(Cl)nc1 [Compound 189]	100%
O=[N+]([O-])C=C(NCCN(Cc1ccc(Cl)nc1)Cc1ccc(Cl)nc1)OCC1CCCCC1 [Compound 190]	100%
CSC(=C[N+](=O)[O-])NCCN(Cc1cccnc1)Cc1ccc(Cl)nc1 [Compound 192]	92%
CSC(=C[N+](=O)[O-])NCCN(Cc1ccc(Cl)nc1)Cc1ccc(Cl)nc1 [Compound 198]	50%
CC(C)CSC(=C[N+](=O)[O-])NCCN(Cc1ccc(Cl)nc1)Cc1ccc(Cl)nc1 [Compound 202]	100%
O=[N+]([O-])C=C(NCCN(Cc1ccc(Cl)nc1)Cc1ccc(Cl)nc1)SCC1CCCCC1 [Compound 203]	100%
C=CCN(CCNC(=C[N+](=O)[O-])SC)Cc1ccc(Cl)nc1 [Compound 220]	100%
C=CCN(CCNC(=C[N+](=O)[O-])SCC1CCCCC1)Cc1ccc(Cl)nc1 [Compound 221]	100%
C=CCCN(CCNC(=C[N+](=O)[O-])SC)Cc1ccc(Cl)nc1 [Compound 222]	100%
CC=CCN(CCNC(=C[N+](=O)[O-])SC)Cc1ccc(Cl)nc1 [Compound 223]	98%

SMILES	Percent Growth Inhibition
CSC(=C[N+](=O)[O-])NCCN(CC=CCl)Cc1ccc(Cl)nc1 [Compound 224]	100%
C=C(Cl)CN(CCNC(=C[N+](=O)[O-])SC)Cc1ccc(Cl)nc1 [Compound 225]	89%
CSC(=C[N+](=O)[O-])NCCN(CC=C(Cl)Cl)Cc1ccc(Cl)nc1 [Compound 228]	100%
CSC(=C[N+](=O)[O-])NCCN(CCC(F)=C(F)F)Cc1ccc(Cl)nc1 [Compound 229]	96%
CSC(=C[N+](=O)[O-])NCCN(CC=Cc1ccccc1)Cc1ccc(Cl)nc1 [Compound 230]	88%
C=CCN(CCNC(=N[N+](=O)[O-])SC)Cc1ccc(Cl)nc1 [Compound 231]	100%
C=CCN(CCNC(=C[N+](=O)[O-])OC)Cc1ccc(Cl)nc1 [Compound 242]	96%
C#CCN(CCN/C(=C/[N+](=O)[O-])OC)Cc1ccc(Cl)nc1 [Compound 244]	100%
C#CCN(CCNC(=C[N+](=O)[O-])OCC)Cc1ccc(Cl)nc1 [Compound 245]	100%
C#CCN(CCNC(=C[N+](=O)[O-])OCCOC)Cc1ccc(Cl)nc1 [Compound 246]	100%
C#CCN(CCNC(=C[N+](=O)[O-])OCCOCCOC)Cc1ccc(Cl)nc1 [Compound 247]	100%
C#CCN(CCNC(=C[N+](=O)[O-])SC)Cc1ccc(Cl)nc1 [Compound 248, {2-[((1Z)-1-methylthio-2-nitrovinyl)amino]ethyl}[(6-chloro(3-pyridyl)methyl]prop-2-ynylamine]	100%
C#CCCN(CCNC(=C[N+](=O)[O-])SC)Cc1ccc(Cl)nc1 [Compound 252]	100%
CC#CCN(CCNC(=C[N+](=O)[O-])SC)Cc1ccc(Cl)nc1 [Compound 253]	100%
CC#CCCN(CCNC(=C[N+](=O)[O-])SC)Cc1ccc(Cl)nc1 [Compound 254]	100%
CCCCCC#CCN(CCNC(=C[N+](=O)[O-])SC)Cc1ccc(Cl)nc1 [Compound 255]	88%
C#CCN(CCNC(=C[N+](=O)[O-])OCC1CCCCC1)Cc1ccc(Cl)nc1 [Compound 256]	100%
C#CCN(CCNC(=C[N+](=O)[O-])SCC1CCCCC1)Cc1ccc(Cl)nc1 [Compound 257]	100%
C#CCCN(CCNC(=C[N+](=O)[O-])SCC1CCCCC1)Cc1ccc(Cl)nc1 [Compound 258]	100%
C#CCN(CCNC(=N[N+](=O)[O-])SC)Cc1ccc(Cl)nc1 [Compound 279]	100%
CSC(=C[N+](=O)[O-])NCCN(CCC#Cc1ccc(Cl)cc1)Cc1ccc(Cl)nc1 [Compound 301]	100%
CSC(=C[N+](=O)[O-])NCCN(CC#Cc1ccc(F)cc1)Cc1ccc(Cl)nc1 [Compound 302]	97%
CSC(=C[N+](=O)[O-])NCCN(CC#Cc1cncnc1)Cc1ccc(Cl)nc1 [Compound 304]	61%
O=[N+]([O-])C=C(NCCN(Cc1ccccc1)Cc1ccc(Cl)nc1)SCc1ccc(C(F)(F)F)cc1 [Compound 307]	100%
COc1ccc(CN(CCNC(=N[N+](=O)[O-])SCc2ccccc2)Cc2ccc(Cl)nc2)cc1 [Compound 310]	100%
COc1ccc(CN(CCNC(=N[N+](=O)[O-])SCc2ccc(Cl)cc2)Cc2ccc(Cl)nc2)cc1 [Compound 311]	100%
O=[N+]([O-])C=C(NCCN(Cc1ccc(Cl)nc1)Cc1ccc(Cl)nc1)SCc1ccccc1Cl [Compound 314]	100%
